Source: patent US11001564B2, “Substituted chromane-8-carboxamide compounds and analogues thereof, and methods using same” (priority 2016, dated 2021)
Counter-ions that a name gives are not always drawn. Like-named read-outs stand apart in the source and are kept apart here.

Test system: HBV rcDNA in HepDE19 cells
Experiment: HepDE19 assay with bDNA quantitation of HBV rcDNA
Format: cell-based, hepatitis B virus (HBV)
Details: Hepatitis B virus, HepDE19, 168 h
Outline: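 HepG2-derived HepDE19 cells, switched to Tet-free medium, were exposed 7 days at 37 °C to compound (8-point ½-log series from 25 μM, 0.5% DMSO). HBV rcDNA measured by bDNA assay with HBV-specific probes; EC50/EC90 by 4-parameter fit. CC50 from CellTiter-Glo ATP on replicate plates after 4 days.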

[1] = read-out: DE-19 bDNA EC50, HepDE19 cells, 7 day incubation, rcDNA by Quantigene 2.0 bDNA assay
[2] = HepDE19 cells, 7 day incubation, rcDNA by Quantigene 2.0 bDNA assay, read-out: DE-19 bDNA EC50

`COC(=O)N[C@H]1CCOc2c(C(=O)Nc3ccc(F)c(Cl)c3)ccc(F)c21` [Compound 91, Methyl (S)-(8-((3-chloro-4-fluorophenyl)carbamoyl)-5-fluorochroman-4-yl)carbamate] gave an EC50 [1] of 0.2 µM.

With `COC(=O)N[C@@H]1CCOc2c(C(=O)Nc3ccc(F)c(Cl)c3)ccc(F)c21` [Compound 92, (R)-Methyl (8-((3-chloro-4-fluorophenyl)carbamoyl)-5-fluorochroman-4-yl) carbamate] the EC50 [1] was 4.6 µM.

Work on `O=C(N[C@H]1CCOc2c(C(=O)Nc3ccc(F)c(F)c3)ccc(F)c21)OCc1ccccn1` [Compound 93, Pyridin-2-ylmethyl (S)-(8-((3,4-difluorophenyl)carbamoyl)-5-fluorochroman-4-yl)carbamate] yielded an EC50 [2] of 0.85 µM.

In the case of `CN1CCC(COC(=O)N[C@H]2CCOc3c(C(=O)Nc4ccc(F)c(F)c4)cccc32)CC1` [Compound 95, (1-methylpiperidin-4-yl)methyl (S)-(8-((3,4-difluorophenyl)carbamoyl)chroman-4-yl)carbamate], the EC50 [2] is reported as 24 µM.

`C[C@@H](OC1CCOc2c(C(=O)Nc3ccc(F)c(F)c3)cccc21)c1ccncc1` (stereo partly drawn) [Compound 96, N-(3,4-difluorophenyl)-4-((R)-1-(pyridin-4-yl)ethoxy)chromane-8-carboxamide] gave an EC50 [2] of 15 µM.

`O=C(Nc1ccc(F)c(F)c1)c1cccc2c1OCCC2c1cnccn1` (stereo not shown) [Compound 97, N-(3,4-difluorophenyl)-4-(pyrazin-2-yl)chromane-8-carboxamide] was tested, and the EC50 [2] was 16 µM.

`Cn1nccc1COC(=O)N[C@H]1CCOc2c(C(=O)Nc3ccc(F)c(F)c3)cccc21` [Compound 100, (1-Methyl-1H-pyrazol-5-yl)methyl (S)-(8-((3,4-difluorophenyl)carbamoyl)chroman-4-yl)carbamate] gave an EC50 [2] of 2.6 µM.

Compound `Cn1nccc1CN[C@H]1CCOc2c(C(=O)Nc3ccc(F)c(F)c3)cccc21` [Compound 101] has an EC50 [2] of 21 µM.

`COc1ccc(COC(=O)N[C@H]2CCOc3c(C(=O)Nc4ccc(F)c(F)c4)cccc32)nc1` [Compound 102, (5-Methoxypyridin-2-yl)methyl (S)-(8-((3,4-difluorophenyl)carbamoyl)chroman-4-yl)carbamate hydrochloride] gave an EC50 [1] of 2.5 µM.

`O=C(N[C@H]1CCOc2c(C(=O)Nc3ccc(F)c(F)c3)cccc21)OCc1ccon1` [Compound 103, Isoxazol-3-ylmethyl (S)-(8-((3,4-difluorophenyl)carbamoyl)chroman-4-yl)carbamate] gave an EC50 [2] of 2.1 µM.

`CNC(=O)N[C@H]1CCOc2c(C(=O)Nc3ccc(F)c(Cl)c3)ccc(F)c21` [Compound 104, (S)—N-(3-Chloro-4-fluorophenyl)-5-fluoro-4-(3-methylureido)chromane-8-carboxamide] gave an EC50 [1] of 0.4 µM.

In the case of `O=C(N[C@H]1CCOc2c(C(=O)Nc3ccc(F)c(Cl)c3)ccc(F)c21)OCc1ccccn1` [Compound 105, Pyridin-2-ylmethyl (S)-(8-((3-chloro-4-fluorophenyl)carbamoyl)-5-fluorochroman-4-yl)carbamate], the EC50 [2] is reported as 0.37 µM.

In the case of `O=C(N[C@@H]1CCOc2c(C(=O)Nc3ccc(F)c(Cl)c3)ccc(F)c21)OCc1ccccn1` [Compound 106, pyridin-2-ylmethyl (R)-(8-((3-chloro-4-fluorophenyl)carbamoyl)-5-fluorochroman-4-yl)carbamate], the EC50 [2] is reported as 20 µM.

Compound `O=C(N[C@H]1CCOc2c(C(=O)Nc3ccc(F)c(F)c3)cccc21)OCC1CCNCC1` [Compound 107, piperidin-4-ylmethyl (S)-(8-((3,4-difluorophenyl)carbamoyl)chroman-4-yl)carbamate] has an EC50 [2] of 21 µM.

For `O=C1CCOc2c1c(F)cc(F)c2C(=O)Nc1ccc(F)c(F)c1` [Compound 110, N-(3,4-difluorophenyl)-5,7-difluoro-4-oxochromane-8-carboxamide], the EC50 [2] was 1.6 µM.

With `COc1cccc(COC(=O)N[C@H]2CCOc3c(C(=O)Nc4ccc(F)c(F)c4)cccc32)n1` [Compound 111, (6-Methoxypyridin-2-yl)methyl (S)-(8-((3,4-difluorophenyl)carbamoyl)chroman-4-yl)carbamate hydrochloride] the EC50 [1] was 2.7 µM.

Compound `O=C(N[C@H]1CCOc2c(C(=O)Nc3ccc(F)c(Cl)c3)cccc21)OCc1cnccn1` [Compound 112, Pyrazin-2-ylmethyl (S)-(8-((3-chloro-4-fluorophenyl)carbamoyl)chroman-4-yl)carbamate] has an EC50 [2] of 0.77 µM.

In the case of `Cc1cc(NC(=O)c2ccc(F)c3c2OCC[C@@H]3NC(=O)OCc2ccccn2)ccc1F` [Compound 113, Pyridin-2-ylmethyl (S)-(5-fluoro-8-((4-fluoro-3-methylphenyl)carbamoyl)chroman-4-yl)carbamate], the EC50 [2] is reported as 0.56 µM.

`Cc1cc(NC(=O)c2ccc(F)c3c2OCC[C@@H]3NC(=O)OCc2cnccn2)ccc1F` [Compound 114, Pyrazin-2-ylmethyl (S)-(5-fluoro-8-((4-fluoro-3-methylphenyl)carbamoyl)chroman-4-yl)carbamate] showed an EC50 [2] of 0.5 µM.

`COC(=O)N[C@H]1CCOc2c(C(=O)Nc3ccc(F)c(F)c3)c(F)cc(F)c21` [Compound 115, Methyl (S)-(8-((3,4-difluorophenyl)carbamoyl)-5,7-difluorochroman-4-yl)carbamate] was tested, and the EC50 [1] was 0.8 µM.

In the case of `CNC(=O)N[C@H]1CCOc2c(C(=O)Nc3ccc(F)c(F)c3)c(F)cc(F)c21` [Compound 116, (S)—N-(3,4-Difluorophenyl)-5,7-difluoro-4-(3-methylureido)chromane-8-carboxamide], the EC50 [1] is reported as 1.8 µM.

Compound `COC(=O)N[C@H]1CCOc2c(C(=O)Nc3ccc(F)c(C)c3)ccc(F)c21` [Compound 117, Methyl (5-fluoro-8-((4-fluoro-3-methylphenyl)carbamoyl)chroman-4-yl)carbamate] has an EC50 [1] of 0.22 µM.

With `O=C1CC[C@@H](COC(=O)N[C@H]2CCOc3c(C(=O)Nc4ccc(F)c(F)c4)cccc32)N1` [Compound 118, ((S)-5-Oxopyrrolidin-2-yl)methyl ((S)-8-((3,4-difluorophenyl)carbamoyl)chroman-4-yl)carbamate] the EC50 [2] was 3.6 µM.

With `O=C1CC[C@H](COC(=O)N[C@H]2CCOc3c(C(=O)Nc4ccc(F)c(F)c4)cccc32)N1` [Compound 119, ((R)-5-Oxopyrrolidin-2-yl)methyl ((S)-8-((3,4-difluorophenyl)carbamoyl)chroman-4-yl)carbamate] the EC50 [2] was 8.7 µM.

In the case of `Cc1cc(NC(=O)c2ccc(F)c3c2OCC[C@@H]3NC(=O)OCc2ncccn2)ccc1F` [Compound 120, Pyrimidin-2-ylmethyl (S)-(5-fluoro-8-((4-fluoro-3-methylphenyl)carbamoyl)chroman-4-yl)carbamate], the EC50 [2] is reported as 0.54 µM.

Work on `CC(=O)N[C@H]1CCOc2c(C(=O)Nc3ccc(F)c(C)c3)ccc(F)c21` [Compound 121, (4S)-4-Acetamido-5-fluoro-N-(4-fluoro-3-methylphenyl)-3,4-dihydro-2H-1-benzopyran-8-carboxamide] yielded an EC50 [2] of 0.62 µM.

With `CNC(=O)N[C@H]1CCOc2c(C(=O)Nc3ccc(F)c(C)c3)ccc(F)c21` [Compound 122, (S)-5-fluoro-N-(4-fluoro-3-methylphenyl)-4-(3-methylureido)chromane-8-carboxamide] the EC50 [1] was 0.32 µM.

Work on `O=C(N[C@H]1CCOc2c(C(=O)Nc3ccc(F)c(F)c3)cccc21)OCc1ncccc1Cl` [Compound 123, (3-Chloropyridin-2-yl)methyl (S)-(8-((3,4-difluorophenyl)carbamoyl)chroman-4-yl)carbamate hydrochloride] yielded an EC50 [1] of 8.8 µM.

`O=C(N[C@H]1CCOc2c(C(=O)Nc3ccc(F)c(F)c3)c(F)cc(F)c21)OCc1ccccn1` [Compound 124, pyridin-2-ylmethyl (S)-(8-((3,4-difluorophenyl)carbamoyl)-5,7-difluorochroman-4-yl)carbamate] showed an EC50 [2] of 25 µM.

Work on `COC(=O)N[C@H]1CCOc2c(C(=O)Nc3ccc(F)c(F)c3)ccc(Cl)c21` [Compound 125, Methyl (S)-(5-chloro-8-((3,4-difluorophenyl)carbamoyl)chroman-4-yl)carbamate] yielded an EC50 [1] of 2.3 µM.

With `CNC(=O)N[C@H]1CCOc2c(C(=O)Nc3ccc(F)c(F)c3)ccc(Cl)c21` [Compound 126, (S)-5-chloro-N-(3,4-difluorophenyl)-4-(3-methylureido)chromane-8-carboxamide] the EC50 [1] was 0.74 µM.

Work on `CN1CCC(COC(=O)N[C@H]2CCOc3c(C(=O)Nc4ccc(F)c(F)c4)cccc32)C1` (stereo partly drawn) [Compound 127, (1-methylpyrrolidin-3-yl)methyl ((S)-8-((3,4-difluorophenyl)carbamoyl)chroman-4-yl)carbamate] yielded an EC50 [2] of 24 µM.

`COC(=O)N[C@H]1CCOc2c(C(=O)Nc3ccc(F)c(OC)c3)ccc(F)c21` [Compound 128, Methyl (S)-(5-fluoro-8-((4-fluoro-3-methoxyphenyl)carbamoyl)chroman-4-yl)carbamate] showed an EC50 [2] of 1.2 µM.

Compound `COCC(=O)N[C@H]1CCOc2c(C(=O)Nc3ccc(F)c(C)c3)ccc(F)c21` [Compound 129, (4S)-5-Fluoro-N-(4-fluoro-3-methylphenyl)-4-(2-methoxyacetamido)-3,4-dihydro-2H-1-benzopyran-8-carboxamide] has an EC50 [2] of 2.5 µM.

`Cc1cc(NC(=O)c2ccc(F)c3c2OCC[C@@H]3NC(=O)OCc2ccncn2)ccc1F` [Compound 130, Pyrimidin-4-ylmethyl (S)-(5-fluoro-8-((4-fluoro-3-methylphenyl)carbamoyl)chroman-4-yl)carbamate] showed an EC50 [2] of 0.62 µM.

`CN(C)C(=O)CC1CCOc2c(C(=O)Nc3ccc(F)c(F)c3)cccc21` (stereo not shown) [Compound 133, N-(3,4-difluorophenyl)-4-(2-(dimethylamino)-2-oxoethyl) chromane-8-carboxamide] was tested, and the EC50 [2] was 14 µM.

For `O=C(N[C@H]1CCOc2c(C(=O)Nc3ccc(F)c(F)c3)ccc(Cl)c21)OCc1ccccn1` [Compound 134, Pyridin-2-ylmethyl (S)-(5-chloro-8-((3,4-difluorophenyl)carbamoyl)chroman-4-yl)carbamate], the EC50 [2] was 1.3 µM.
